From patent US20060014723A1, “Anti-parasitic uses of borinic acid complexes” (priority 2004, published 2006)
Converted amounts (≈) assume the structure as drawn.

Legend:
[1] = test system: Leishmania donovani strain MHOM/ET1671L82; assay: Leishmaniasis in vitro screening model (axenic amastigotes, Alamar Blue); format: cell-based
Outline: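 Axenic L. donovani amastigotes (10^5 per well) from hamster spleen, grown at 37° C in SM medium pH 5.4 with 10% FBS, 5% CO2, exposed to serial 3-fold compound dilutions (30 to 0.041 μg/mL) for 72 h. Alamar Blue added for 2 h, fluorescence read (ex 536/em 588 nm); IC50 from sigmoidal curve versus control cultures.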

P. falciparum K1 = assay: Malaria in vitro screening model (3H-hypoxanthine incorporation); format: cell-based, Plasmodium falciparum
Outline: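 Chloroquine/pyrimethamine-resistant P. falciparum K1 in human A+ erythrocytes (0.15% parasitemia, 2.5% hematocrit) was exposed to seven 2-fold compound dilutions in hypoxanthine-free medium at 37 °C, low O2. After 48 h, 0.5 μCi ³H-hypoxanthine was added for 24 h more. IC50 was taken from sigmoidal curves as % of untreated control.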

Row | SMILES | IC50 ([1]; Leishmania donovani, read-out: L. donovani IC50) | IC50 (P. falciparum K1; Plasmodium falciparum, K1) | L. donovani IC50 [1] | P. falciparum IC50 (P. falciparum K1)
1 | COc1ccc(B(Oc2cccc3cccnc23)c2cccc(Cl)c2)cc1OC [Compound 27, (3-Chlorophenyl)(3,4-dimethoxyphenyl)borinic acid quinolin-8-yl ester] | 0.47 µg/mL (≈ 1.16 µM) | 1.7 µg/mL (≈ 4.21 µM) | – | –
2 | CC1(C)COC(c2cccc(B(Oc3cccc4cccnc34)c3cccc(C4=NC(C)(C)CO4)c3)c2)=N1 [Compound 13, Bis[3-(4,5-dihydro-4,4-dimethyloxazol-2-yl)phenyl]borinic acid 8-hydroxyquinoline ester] | – | – | 0.82 µg/mL | 2 µg/mL
